Laboratory results: US20230104692A1, “DMEU ENHANCER” (priority 2020, published 2023)

Experiments:
[1] = loading concentration of saturated active ingredient solution in penetration accelerator; type: physicochemical; conditions: for loading concentration in dimethyl isosorbide: dimethyl isosorbide as penetration accelerator; for loading concentration of saturated solution in DMEU: donor volume 150 μl
Experimental: The following test series with the various penetration accelerators and for the selected active ingredients were carried out in the context of a typical in vitro permeation using Franz diffusion cells. The used acceptor medium was replaced completely for a new one at predetermined replacement times, and the content of permeated active ingredient amount in these acceptor solutions was determined by means of HPLC.

[2] = in words; cited from earlier work

Row | loading concentration in dimethyl isosorbide [1] | loading concentration of saturated solution in DMEU [1] | loading concentration in dipropylene glycol ([1]; dipropylene glycol as penetration accelerator) | Structure (SMILES) | water solubility [2]
1 | 1.29 mg/cm^2 | 12.75 mg/cm^2 | – | COc1cc(/C=C/C(=O)CC(=O)/C=C/c2ccc(O)c(OC)c2)ccc1O [Curcumin] | almost insoluble in water
2 | – | – | – | CCOC(=O)C1=C(C)NC(C)=C(C(=O)OC)C1c1cccc(Cl)c1Cl (stereo not drawn) [Felodipine] | almost insoluble in water
3 | – | – | – | Cc1cc2c(s1)Nc1ccccc1N=C2N1CCN(C)CC1 [Olanzapine] | almost insoluble in water
4 | 6.4 mg/cm^2 | 27.7 mg/cm^2 | 2.1 mg/cm^2 | CC(=O)[C@H]1CC[C@H]2[C@@H]3CCC4=CC(=O)CC[C@]4(C)[C@H]3CC[C@]12C [Progesterone] | almost insoluble in water
